Experimental findings from patent publication US20260125375A1 (Pfizer Inc., priority 2022, published 2026) are described below.

One assay has as its target T1, C-CBL (residues 46-435) (Homo sapiens, UniProt P22681).
T1 construct: Purified CBL-B (residues 36-427) and C-CBL (residues 46-435) proteins from baculovirus-infected insect cells; made in house; host or cells: baculovirus-infected insect cells
T1 sequence (P22681 46-435): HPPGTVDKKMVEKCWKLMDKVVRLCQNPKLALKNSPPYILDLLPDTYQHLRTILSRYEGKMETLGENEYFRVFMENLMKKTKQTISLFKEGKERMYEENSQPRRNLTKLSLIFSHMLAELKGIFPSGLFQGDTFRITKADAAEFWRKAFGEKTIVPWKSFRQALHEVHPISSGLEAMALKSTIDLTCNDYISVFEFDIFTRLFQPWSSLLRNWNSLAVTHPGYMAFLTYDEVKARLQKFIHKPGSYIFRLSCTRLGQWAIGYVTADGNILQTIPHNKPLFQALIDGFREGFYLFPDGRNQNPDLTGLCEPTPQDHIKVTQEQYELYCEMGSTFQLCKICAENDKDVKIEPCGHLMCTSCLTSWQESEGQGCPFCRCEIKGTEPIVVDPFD
In words: Ligand Displacement Assay (LDA), HTRF competitive binding against BODIPY-labeled fluorescent tracer, C-CBL. To be noted: geometric mean of the number of tests, read-out: C-CBL Ki (nM) GMean. In outline:
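Insect-cell (baculovirus) protein, N-term AviTag biotinylated via BirA, captured by SA-Tb; BODIPY tracer, KD measured per protein. 3-fold serial dilutions, duplicate, […], 2% DMSO final. Ki (nM) = geomean of runs.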
In general terms: In TR-FRET formats the signal depends on donor and acceptor labels being close together.

The target in a further assay is T2, CBL-B (Homo sapiens, UniProt Q13191).
T2 construct: endogenous in cells; host or cells: Jurkat HiBit-IL2 reporter cells, C-CBL knocked out by CRISPR
Briefly: Jurkat HiBit-IL2 assay (c-CBL KO), reporter cell line expressing CBL-B only. In kind it is cell-based. As to conditions: geometric mean, read-out: C-CBL KO EC50 (nM) GMean. In outline: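 CRISPR knockout Jurkat HiBit-IL2 reporter cells (20,000/well) were preincubated 1 h with compounds (0.1% DMSO), then stimulated 4 h at 37 °C with anti-CD3 (1 μg/ml) and anti-CD28 (2 μg/ml) final. IL-2 was read by HiBiT lytic luminescence, normalized as fold over antibody-only baseline; EC50 reported as geometric mean.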
A general note: The HiBiT peptide binds its large partner to form an active luciferase.

The mark [1] stands for this setting: c-CBL KO (CBL-B only), anti-CD3/anti-CD28 stimulation 4 hours, Table 16a.
The mark [2] stands for this setting: C-CBL KO (expressing CBL-B only), Table 16b (further repetition).

Read-outs that look alike come from different tables or passages of the source.

What is called Ki is the equilibrium dissociation constant of an inhibitor or competing ligand from its target. Broadly, the EC50 is the concentration giving half of the maximal effect.

As for `C[C@@H](N[C@H]1CCC(F)(F)C1)c1nc(C(F)(F)F)cc2c(-c3cccc(C4(Cc5nncn5C)COC4)c3)n[nH]c12` (single isomer, unassigned) [Example C13], the Ki at C-CBL (residues 46-435) worked out at 8 nM. Further, the EC50 at CBL-B (setting [1]) came out at 16 nM.

`C[C@@H]1CCCN([C@@H](C)c2nc(C(F)(F)F)cc3c(-c4cccc(C5(Cc6nncn6C)COC5)c4)n[nH]c23)C1` (single isomer, unassigned) [Example D13]: the Ki at C-CBL (residues 46-435) is 53.6 nM. Moreover, the EC50 at CBL-B (setting [1]) came to 149 nM.

As for `CC(NC1CCCC1)c1nc(C(F)(F)F)cc2c(-c3cccc([C@H](c4nncn4C)C4CCC4)c3)n[nH]c12` (stereo partly drawn) [Example C14, N-{(1ξ)-1-[3-{3-[(R)-cyclobutyl(4-methyl-4H-1,2,4-triazol-3-yl)methyl]phenyl}-5-(trifluoromethyl)-1H-pyrazolo[3,4-c]cyclopen-7-yl]ethyl}cyclopentanamine], the Ki at C-CBL (residues 46-435) turned out to be 2.3 nM. Moreover, the EC50 on CBL-B (setting [2]) was found to be 5 nM; on CBL-B (setting [1]), 4 nM.

Take `C[C@H](N[C@@H]1CCC(F)(F)C1)c1nc(C(F)(F)F)cc2c(-c3cccc(C4(Cc5nncn5C)COC4)c3)n[nH]c12` (single isomer, unassigned) [Example C17]: on C-CBL (residues 46-435), the Ki is 24.8 nM. Moreover, the EC50 on CBL-B (setting [1]) turned out to be 33 nM.

For the compound `CC(NC1CNC1)c1nc(C(F)(F)F)cc2c(-c3cccc(C4(Cc5nncn5C)COC4)c3)n[nH]c12` (single isomer, unassigned) [Example C28, N-{(1ξ)-1-[3-(3-{3-[(4-methyl-4H-1,2,4-triazol-3-yl)methyl]oxetan-3-yl}phenyl)-5-(trifluoromethyl)-1H-pyrazolo[3,4-c]pyridin-7-yl]ethyl}azetidin-3-amine], the Ki on C-CBL (residues 46-435) is 114 nM. Besides, on CBL-B (setting [1]), the EC50 is greater than 2070 nM.

On to `Cn1cnnc1CC1(c2cccc(-c3n[nH]c4cnc(C(F)(F)F)cc34)c2)COC1` [Example B1, 3-(3-(3-((4-methyl-4H-1,2,4-triazol-3-yl)methyl)oxetan-3-yl)phenyl)-5-(trifluoromethyl)-1H-pyrazolo[3,4-c]pyridine], for which the Ki on C-CBL (residues 46-435) was 283 nM. On CBL-B (setting [1]), the EC50 is greater than 8710 nM.

As for `C[C@H](N[C@@H]1CCC[C@@H]1O)c1nc(C(F)(F)F)cc2c(-c3cccc([C@H](c4nncn4C)C4CCC4)c3)n[nH]c12` (single isomer, unassigned) [Example D15], at C-CBL (residues 46-435), the Ki was 1 nM. The EC50 was determined as 4 nM on CBL-B (setting [2]) and 3 nM at CBL-B (setting [1]).

On to `C[C@H](O)CN[C@@H](C)c1nc(C(F)(F)F)cc2c(-c3cccc([C@H](c4nncn4C)C4CCC4)c3)n[nH]c12` (single isomer, unassigned) [Example D19], for which the Ki on C-CBL (residues 46-435) stood at 12.4 nM. Also, the figures for the EC50 at CBL-B (setting [2]) and on CBL-B (setting [1]) were 24 nM and 9 nM, respectively.

Regarding `CC(c1nc(C(F)(F)F)cc2c(-c3cccc(C4(Cc5nncn5C)COC4)c3)n[nH]c12)N1CCCCC1` (single isomer, unassigned) [Example C21, 3-(3-{3-[(4-methyl-4H-1,2,4-triazol-3-yl)methyl]oxetan-3-yl}phenyl)-7-[(1ξ)-1-(piperidin-1-yl)ethyl]-5-(trifluoromethyl)-1H-pyrazolo[3,4-c]pyridine], on C-CBL (residues 46-435), the Ki came out at 93.5 nM. Moreover, the EC50 on CBL-B (setting [1]) turned out to be 152 nM.

In the case of `Cn1cnnc1[C@@H](c1cccc(-c2n[nH]c3c(CN[C@@H]4CCC[C@@H]4O)nc(C(F)(F)F)cc23)c1)C1CCC1` [Example C1, (1S,2R)-2-({[3-{3-[(R)-cyclobutyl(4-methyl-4H-1,2,4-triazol-3-yl)methyl]phenyl}-5-(trifluoromethyl)-1H-pyrazolo[3,4-c]pyridin-7-yl]methyl}amino)cyclopentan-1-ol], at C-CBL (residues 46-435), the Ki amounted to 7.1 nM. Besides, the EC50 stood at 116 nM on CBL-B (setting [2]) and 25 nM at CBL-B (setting [1]).

As to `C[C@H](N[C@H]1CCC(F)(F)C1)c1nc(C(F)(F)F)cc2c(-c3cccc([C@H](c4nncn4C)C4CCC4)c3)n[nH]c12` [Example C8], at C-CBL (residues 46-435), the Ki was found to be 3 nM. Also, at CBL-B (setting [1]), the EC50 was 6 nM.

For the compound `C[C@H]1CN([C@@H](C)c2nc(C(F)(F)F)cc3c(-c4cccc(C5(Cc6nncn6C)COC5)c4)n[nH]c23)CCO1` (single isomer, unassigned) [Example D11], the Ki at C-CBL (residues 46-435) came to 27.2 nM. Besides, the concentration giving a half-maximal response (EC50) at CBL-B (setting [1]) amounted to 143 nM.

Consider `C[C@@H](NC1CC(F)(F)C1)c1nc(C(F)(F)F)cc2c(-c3cccc([C@H](c4nncn4C)C4CCC4)c3)n[nH]c12` (single isomer, unassigned) [Example D91], for which, on C-CBL (residues 46-435), the Ki is 66.8 nM. The EC50 at CBL-B (setting [2]) stood at 41 nM.

In the case of `CC1CN(Cc2nc(C(F)(F)F)cc3c(-c4cccc(C5(Cc6nncn6C)COC5)c4)n[nH]c23)CCC1(F)F` (single isomer, unassigned) [Example C32, 7-{[(3ξ)-4,4-difluoro-3-methylpiperidin-1-yl]methyl}-3-(3-{3-[(4-methyl-4H-1,2,4-triazol-3-yl)methyl]oxetan-3-yl}phenyl)-5-(trifluoromethyl)-1H-pyrazolo[3,4-c]pyridine], the Ki on C-CBL (residues 46-435) was found to be 55.6 nM. In addition, the EC50 on CBL-B (setting [2]) stood at 49 nM; on CBL-B (setting [1]) it was 83 nM.

`C[C@H](N[C@H]1CCOC1)c1nc(C(F)(F)F)cc2c(-c3cccc([C@H](c4nncn4C)C4CCC4)c3)n[nH]c12` (single isomer, unassigned) [Example C2]: the Ki on C-CBL (residues 46-435) amounted to 55.6 nM. Also, the EC50 at CBL-B (setting [1]) is 54 nM.

In the case of `C[C@H](N[C@H]1C[C@@H](O)C1)c1nc(C(F)(F)F)cc2c(-c3cccc([C@H](c4nncn4C)C4CCC4)c3)n[nH]c12` (single isomer, unassigned) [Example C36], the Ki at C-CBL (residues 46-435) worked out at 16.8 nM. For the same compound, the EC50 amounted to 35 nM on CBL-B (setting [2]) and 20 nM at CBL-B (setting [1]).

In the case of `Cn1cnnc1[C@@H](c1cccc(-c2n[nH]c3c(CN[C@H]4CCC[C@@H]4O)nc(C(F)(F)F)cc23)c1)C1CCC1` [Example C4, (1S,2S)-2-({[3-{3-[(R)-cyclobutyl(4-methyl-4H-1,2,4-triazol-3-yl)methyl]phenyl}-5-(trifluoromethyl)-1H-pyrazolo[3,4-c]pyridin-7-yl]methyl}amino)cyclopentan-1-ol], the Ki at C-CBL (residues 46-435) was found to be 47.4 nM. For the same compound, the EC50 on CBL-B (setting [1]) stood at 114 nM.

In the case of `CC1CN(Cc2nc(C(F)(F)F)cc3c(-c4cccc(C5(Cc6nncn6C)COC5)c4)n[nH]c23)CCC1(F)F` (single isomer, unassigned) [Example C31, 7-{[(3ξ)-4,4-difluoro-3-methylpiperidin-1-yl]methyl}-3-(3-{3-[(4-methyl-4H-1,2,4-triazol-3-yl)methyl]oxetan-3-yl}phenyl)-5-(trifluoromethyl)-1H-pyrazolo[3,4-c]pyridine], at C-CBL (residues 46-435), the Ki was determined as 112 nM. Also, on CBL-B (setting [1]), the EC50 is 166 nM.

As to `C[C@H](N[C@@H]1CC[C@@H]1O)c1nc(C(F)(F)F)cc2c(-c3cccc([C@H](c4nncn4C)C4CCC4)c3)n[nH]c12` (single isomer, unassigned) [Example D28], the Ki on C-CBL (residues 46-435) was 0.6 nM. Also, the EC50 on CBL-B (setting [1]) amounted to 1 nM.

For `C[C@H](NC1CCCC1)c1nc(C(F)(F)F)cc2c(-c3cccc([C@H](c4nncn4C)C4CCC4)c3)n[nH]c12` (single isomer, unassigned) [Example C10], the Ki on C-CBL (residues 46-435) turned out to be 108 nM. In addition, the EC50 on CBL-B (setting [1]) came out at 233 nM.

Regarding `C[C@H]1CCCN(Cc2nc(C(F)(F)F)cc3c(-c4cccc(C5(Cc6nncn6C)COC5)c4)n[nH]c23)C1` [Example C30, 7-{[(3S)-3-methylpiperidin-1-yl]methyl}-3-(3-{3-[(4-methyl-4H-1,2,4-triazol-3-yl)methyl]oxetan-3-yl}phenyl)-5-(trifluoromethyl)-1H-pyrazolo[3,4-c]pyridine], at C-CBL (residues 46-435), the Ki stood at 23.4 nM. Further, the EC50 at CBL-B (setting [1]) turned out to be 32 nM.

Take `Cn1cnnc1CC1(c2cccc(-c3n[nH]c4c(CN[C@H]5CCC(F)(F)C5)nc(C(F)(F)F)cc34)c2)COC1` [Example C38, (1S)-3,3-difluoro-N-{[3-(3-{3-[(4-methyl-4H-1,2,4-triazol-3-yl)methyl]oxetan-3-yl}phenyl)-5-(trifluoromethyl)-1H-pyrazolo[3,4-c]pyridin-7-yl]methyl}cyclopentan-1-amine]: the Ki on C-CBL (residues 46-435) was 32.9 nM. Besides, the EC50 at CBL-B (setting [1]) is 71 nM.

As to `C[C@@H](N[C@@H]1CCOC1)c1nc(C(F)(F)F)cc2c(-c3cccc([C@H](c4nncn4C)C4CCC4)c3)n[nH]c12` (single isomer, unassigned) [Example D3], the Ki at C-CBL (residues 46-435) was 69.7 nM. The values for the EC50 at CBL-B (setting [2]) and on CBL-B (setting [1]) were 67 nM and 47 nM, respectively.

Regarding `CC(c1nc(C(F)(F)F)cc2c(-c3cccc(C4(Cc5nncn5C)COC4)c3)n[nH]c12)N1CCCCC1` (single isomer, unassigned) [Example C22, 3-(3-{3-[(4-methyl-4H-1,2,4-triazol-3-yl)methyl]oxetan-3-yl}phenyl)-7-[(1ξ)-1-(piperidin-1-yl)ethyl]-5-(trifluoromethyl)-1H-pyrazolo[3,4-c]pyridine], at C-CBL (residues 46-435), the Ki was determined as 133 nM. For the same compound, the EC50 at CBL-B (setting [1]) is 120 nM.
